According to US7875621B2, “Substituted 2-alkyl quinazolinone derivatives as PARP inhibitors” (Janssen Pharmaceutica NV, priority 2004, dated 2011):

Columns and labels:
[1] = target: T1, TANK-2 enzyme (Homo sapiens, UniProt Q9H2K2); experiment: In vitro scintillation proximity assay (SPA) for TANK-2 inhibitory activity; assay type: biochemical; settings: auto-poly(ADP-ribosyl)ation, [3H]-NAD+, 96- or 384-well Ni Flash plates; read-out: in vitro SPA TANK-2 pIC50 (converted)
T1 construct: inferred from capture on Ni-coated flash plate; made in house
T1 sequence (Q9H2K2 1-1166): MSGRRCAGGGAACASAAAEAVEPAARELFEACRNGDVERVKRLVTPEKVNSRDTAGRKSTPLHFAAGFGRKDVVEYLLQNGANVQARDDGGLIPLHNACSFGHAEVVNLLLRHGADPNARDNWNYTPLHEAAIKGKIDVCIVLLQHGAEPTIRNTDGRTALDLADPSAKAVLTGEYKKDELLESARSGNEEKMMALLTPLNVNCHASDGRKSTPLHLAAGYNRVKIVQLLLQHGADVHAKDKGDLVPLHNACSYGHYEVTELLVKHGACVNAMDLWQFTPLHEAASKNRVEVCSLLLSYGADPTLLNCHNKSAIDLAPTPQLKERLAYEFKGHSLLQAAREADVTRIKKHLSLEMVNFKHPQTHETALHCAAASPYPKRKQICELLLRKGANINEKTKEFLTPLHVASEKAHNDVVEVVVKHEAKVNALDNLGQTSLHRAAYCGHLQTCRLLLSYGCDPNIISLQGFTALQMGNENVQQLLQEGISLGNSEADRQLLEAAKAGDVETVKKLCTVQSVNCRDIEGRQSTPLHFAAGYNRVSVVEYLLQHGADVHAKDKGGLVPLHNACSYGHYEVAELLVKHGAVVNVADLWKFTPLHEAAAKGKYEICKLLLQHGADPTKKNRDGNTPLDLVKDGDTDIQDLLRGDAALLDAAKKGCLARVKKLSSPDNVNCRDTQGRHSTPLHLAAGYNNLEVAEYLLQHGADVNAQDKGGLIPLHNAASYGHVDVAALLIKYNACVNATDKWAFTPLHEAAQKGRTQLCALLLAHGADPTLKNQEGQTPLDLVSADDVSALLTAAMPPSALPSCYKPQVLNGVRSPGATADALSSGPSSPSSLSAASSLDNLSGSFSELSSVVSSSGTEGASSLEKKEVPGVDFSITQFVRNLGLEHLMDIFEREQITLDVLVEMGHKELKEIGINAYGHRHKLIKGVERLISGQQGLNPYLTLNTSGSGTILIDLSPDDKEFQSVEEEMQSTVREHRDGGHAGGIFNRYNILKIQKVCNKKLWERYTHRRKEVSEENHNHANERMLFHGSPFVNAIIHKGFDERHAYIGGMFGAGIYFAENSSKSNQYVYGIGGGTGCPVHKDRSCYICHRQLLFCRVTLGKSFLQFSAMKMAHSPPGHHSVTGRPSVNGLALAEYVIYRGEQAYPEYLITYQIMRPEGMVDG
Procedure: In Vitro Scintillation Proximity Assay (SPA) for TANK-2 Inhibitory Activity
Compounds of the present invention were tested in an in vitro assay based on SPA technology with Ni Flash plates (96 or 384 well).
In principle, the assay relies upon SPA technology for the detection of auto-poly(ADP-ribosyl)ation of TANK-2 protein using [^3H]-nicotinamide adenine dinucleotide ([^3H]-NAD^+) as ADP-ribosyl donor.
A stock solution of [^3H]-NAD^+/NAD was made by adding 64.6 μl of [^3H]-NAD^+ (0.1 mCi/ml, supplier: Perkin Elmer) and 46.7 μl NAD-stock (10.7 mM, stored at −20° C., supplier Roche) to 1888.7 μl assay buffer (60 mM Tris/HCl, pH 7.4; 0.9 mM DTT; 6 mM MgCl2). The TANK-2 enzyme was produced as described in EP1238063. 60 μl of assay buffer, together with 1 μl of compound in DMSO, 20 μl of [^3H]-NAD^+/NAD and 20 μl of TANK-2 enzyme (final concentration 6 μg/ml) was added per well into a 96-well Ni-coated flash plate (Perkin Elmer). After incubation of the mixture for 120 min. at room temperature, the reaction was terminated by adding 60 μl of stopsolution (42.6 mg NAD in 6 ml H2O). The plates were covered with a plate sealer and placed in a TopCountNXT™ (Packard) for scintillation counting. Values were expressed as counts per minute (cpm). For each experiment, controls (containing TANK-2 enzyme and DMSO without compound), a blank incubation (containing DMSO but no TANK-2 enzyme or compound) and samples (containing TANK-2 enzyme and compound dissolved in DMSO) were run in parallel. All compounds tested were dissolved and eventually further diluted in DMSO. In first instance, compounds were tested at a concentration of 10^−5M. […] In each test, the blank value was subtracted from both the control and the sample values. The control sample represented maximal TANK-2 enzyme activity. For each sample, the amount of cpm was expressed as a percentage of the mean cpm value of the controls. When appropriate, IC50-values (concentration of the drug, needed to reduce the TANK-2 enzyme activity to 50% of the control) were computed using linear interpolation between the experimental points just above and below the 50% level. Herein the effects of test compounds are expressed as pIC50 (the negative log value of the IC50-value). As reference compounds, 3-aminobenzamide and 4-amino-1,8-naphtalimide were included to validate the SPA assay. Herein the assay was described using 96-well plates. In the assay using 384-well plates the same final concentrations were used and volumes were adapted.

[2] = system: infarct size in the heart; settings: rabbits, cited from earlier work
[3] = system: colitis; settings: rats, colitis by intraluminal trinitrobenzene sulfonic acid in 50% ethanol; cited from earlier work

Work on `O=C1NC(CCN2CCC(C(=O)c3ccc(F)cc3)CC2)Nc2ccccc21` (stereo not shown) [Compound 1] yielded an IC50 [1] greater than 10 µM.
For `Oc1cccc2c(O)nccc12` [1,5-dihydroxyisoquinoline], the “reduction in infarct size” value ([2]; single injection 1 mg/kg) is listed as 38-48%.
In the case of `NC(=O)c1cccc(N)c1` [3-amino-benzamide], the “reduction in infarct size in the heart” value ([2]; single injection 10 mg/kg, one minute before occlusion or before reperfusion) is given as 32-42% and the “effect on inflammatory response and distal colon” value [3] is given as “reduced the inflammatory response”.
